# Entries after “also recorded” stand apart in the source; their conditions may differ. Like-named read-outs stand apart in the source and are kept apart here.
# System: acute migraine episodes
# Type: in vivo, human
# Design: key to Pain Rating After Administration: 0 = no pain, 10 = worst pain imaginable
# Conditions: for Mean Time Until Maximal Effect: no unit in table (minutes); for Pain Rating After Administration / Pain Relief: mean; for Pain Rating After Administration / Pain Relief / Rate of Pain Relief (migraine pain reduction per minute per gram of drug): 10-point pain scale
# Source text: The purpose of the experiments described in this Example was to determine the efficacy of dorsonasal administration of ropivacaine for inhibition of acute migraine episodes. Ropivacaine was dorsonasally administered to individual patients experiencing head pain, other symptoms, or both, believed to be associated with an acute migraine episode. Patients assessed head pain prior to and after ropivacaine administration.
# Ropivacaine-HCl (NAROPINT™, Astra USA, Westborough, Mass.) was used as the commercially-available 0.75% (w/v) solution, and was obtained in 30 milliliter, sterile injectable vials.
# Three methods were used to achieve dorsonasal delivery of ropivacaine to individual patients. Ropivacaine was administered to a first group of patients by an intranasal drip method. Ropivacaine was administered to a second group using cotton swabs, the absorbent portions of which were saturated with the ropivacaine solution. Ropivacaine was administered to patients in a third group by spraying the ropivacaine solution into each nostril, using either a squeeze-type spray bottle or a metered-dose spray bottle.
# The intranasal drip method used to administer ropivacaine to the first group of patients was a based on the method described by Barre (1982, Headache 22:69-73), except that the ropivacaine solution was used in place of the solution used by Bane. Approximately 0.75 milliliter to approximately 1.0 milliliter of the ropivacaine solution was administered by way of each of the nostrils of each patient.
# The cotton swab method used to administer ropivacaine to the second group of patients comprised gently inserting cotton swabs, sequentially and bilaterally, into the nostrils of patients and urging the swabs dorsally until their absorbent portions contacted portions of nasal epithelium located dorsal to the middle conchae. Each swab was left in place for approximately one minute, and was then withdrawn. Approximately 0.5 milliliter of the ropivacaine solution was delivered to each nostril using this method.
# Patients in a third group were administered ropivacaine by spraying less than about 0.5 milliliter of the ropivacaine solution into each of the patient's nostrils using either a sterile squeeze bottle or a sterile metered-dose spray bottle of known design. The design and operation of each of these spray bottles are well known in the art.
# Prior to administration of ropivacaine, each patient was placed in a supine position with the patient's head hyperextended approximately 45 degrees and rotated approximately 30 degrees to the right side. In this position, an imaginary line extending from the region of the nasal epithelium overlying the SPG of the patient through the patient's left nostril was approximately vertical. Ropivacaine was then administered to the left nostril of the patient as described for each of the three groups of patients. Ropivacaine was administered to each patient's right nostril after rotating the patient's head approximately 30 degrees to the left. Ropivacaine was administered to both nostrils of each patient to prevent cases of unilateral migraine from developing into contralateral migraine.
# Prior to ropivacaine administration, each patient rated perceived headache pain according to a standard pain scale of the type used in the art. Patients were asked to rank the severity of pain which they were experiencing on a scale from 0 (no pain) to 10 (worst pain imaginable). This ten-point pain rating scale is analogous to, but has more gradations than, the four-point rating system used by the International Headache Society (IHS; Headache Classification Committee of the International Headache Society, 1988, Cephalalgia 8(Suppl. 7):19-28). Ropivacaine was administered to one nostril of each patient, and then to the other. The time required to administer ropivacaine to both nostrils of each patient was approximately three minutes. […]
# [1] = ropivacaine 0.75% (w/v), 2 Metered Sprays per nostril, individual patients, pain scale 0-10
# [2] = ropivacaine 0.75% (w/v), 2 Sprays per nostril (squeeze bottle), individual patients, pain scale 0-10
# [3] = ropivacaine 0.75% (w/v), 2 cc Drops (nasal drip), individual patients, pain scale 0-10
# [4] = ropivacaine 0.75% (w/v), Sat'd Cotton Swab, individual patients, pain scale 0-10
# [5] = ropivacaine 0.75% (w/v), Sat'd Cotton Swab, individual patients, pain scale 0-10, listed as R
# [6] = ropivacaine vs literature rizatriptan data (Kramer et al.)
# [7] = ropivacaine, Cotton Swab, 24 patients
# [8] = ropivacaine, Nasal Drops, 3 patients
# [9] = ropivacaine, Nasal Spray, 10 patients
# [10] = ropivacaine, nasal drops, three patients
smiles,measurement,setting,value
"CCCN1CCCC[C@H]1C(=O)Nc1c(C)cccc1C [Ropivacaine, ropivacaine]",Adverse effects of administration,"human, in vivo",one patient experienced an allergic response to ropivacaine administration
same,Apparent allergic reaction,"human, in vivo",allergic reaction between 5
same,Oropharyngeal numbness,"human, in vivo",6
same,Time to half maximal inhibition of CNvD or symptom,intranasal or dorsonasal administration,within about three minutes
same,Pain 10 min post-treatment,[1],Pain 10 min post-treatment: 0
same,Pain 15 min post-treatment,[1],Pain 15 min post-treatment: 5
same,Pain 20 min post-treatment,[1],Pain 20 min post-treatment: 3
same,Pain 45 min post-treatment,[1],Pain 45 min post-treatment: 0
same,Pain 60 min post-treatment,[1],Pain 60 min post-treatment: 2
same,Pain 90 min post-treatment,[1],Pain 90 min post-treatment: 0
same,Pain 2 min post-treatment,[2],Pain 2 min post-treatment: 0
same,Pain 10 min post-treatment,[2],Pain 10 min post-treatment: 0
same,Pain 15 min post-treatment,[2],Pain 15 min post-treatment: 2
same,Pain 20 min post-treatment,[2],0
same,Pain 30 min post-treatment,[2],0
same,Pain 3 min post-treatment,[3],Pain 3 min post-treatment: 0
same,Pain 60 min post-treatment,[3],Pain 60 min post-treatment: 0
same,Pain 15 min post-treatment,"ropivacaine 0.75% (w/v), 2 cc Drops (nasal drip), individual patients, pain scale 0-10, listed as R",Pain 15 min post-treatment: 0; also recorded: Pain 15 min post-treatment: 5
same,Persistence of residual pain,"ropivacaine 0.75% (w/v), Sat'd Cotton Swab, P#40",Level 5 pain endured 8 hours
same,Pain 1 min post-treatment,[4],Pain 1 min post-treatment: 0
same,Pain 8 min post-treatment,[4],Pain 8 min post-treatment: 0
same,Pain 15 min post-treatment,[4],Pain 15 min post-treatment: 0
same,Pain 30 min post-treatment,[4],Pain 30 min post-treatment: 5
same,Pain 18 hrs post-treatment,[4],Pain 18 hrs post-treatment: 8
same,Pain 24 hours post-treatment,[4],Pain 24 hours post-treatment: 1
same,Pain 2 min post-treatment,[5],Pain 2 min post-treatment: 1; also recorded: Pain 2 min post-treatment: 0
same,Pain 3 min post-treatment,[5],Pain 3 min post-treatment: 0; also recorded: Pain 3 min post-treatment: 1
same,Pain 5 min post-treatment,[5],Pain 5 min post-treatment: 0; also recorded: Pain 5 min post-treatment: 1; also recorded: Pain 5 min post-treatment: 2
same,Pain 10 min post-treatment,[5],Pain 10 min post-treatment: 1; also recorded: Pain 10 min post-treatment: 0
same,Pain 20 min post-treatment,[5],Pain 20 min post-treatment: 3; also recorded: Pain 20 min post-treatment: 0
same,Patients with significant pain reduction,"ropivacaine 0.75% (w/v), cotton swab",100%
same,Effectiveness to reduce pain associated with migraine,"ropivacaine 0.75% (w/v), dorsonasal spray",100%
same,Pain following spray,"ropivacaine 0.75% (w/v), retreated with 2 Sprays 18 hrs after swab treatment (P#14), pain scale 0-10",0
same,Response rate compared with lidocaine (FIG. 3),ropivacaine vs literature lidocaine data (Maizels et al.),nearly two-fold greater response rate
same,Rebound rate compared with rizatriptan,[6],lower than the rebound rate following rizatriptan administration
same,Response rate compared with rizatriptan,[6],greater than the response rate obtained by administration of rizatriptan
same,Onset of relief and response rate compared with sumatriptan (FIG. 3),ropivacaine vs literature subcutaneous sumatriptan data,earlier onset of relief and a higher response rate
same,Mean Reduction in Pain Rating,[7],8.64 IHS points
same,Mean Time Until Maximal Effect,[7],7.41
same,Pain Rating After Administration,"ropivacaine, Cotton Swab",0.33
same,Pain Relief,"ropivacaine, Cotton Swab",8.73
same,Rebound Rate,"ropivacaine, Dorsonasal Spray",10%
same,Relative Efficacy (Rate of Pain Relief divided by that of intranasally spray-administered lidocaine),"ropivacaine, Dorsonasal Spray",2.45
same,Rate of Pain Relief (migraine pain reduction per minute per gram of drug),"ropivacaine, Dorsonasal Spray",24.5
same,Rebound Rate,"ropivacaine, Dorsonasal Swab",4%
same,Relative Efficacy (Rate of Pain Relief divided by that of intranasally spray-administered lidocaine),"ropivacaine, Dorsonasal Swab",15.5
same,Rate of Pain Relief (migraine pain reduction per minute per gram of drug),"ropivacaine, Dorsonasal Swab",155
same,Rate of Pain Relief,"ropivacaine, Nasal Drops",1.25 IHS points per minute
same,Mean Reduction in Pain Rating,[8],9.00 IHS points
same,Mean Time Until Maximal Effect,[8],26.0
same,Pain Rating After Administration,"ropivacaine, Nasal Drops",0.00
same,Pain Relief,"ropivacaine, Nasal Drops",9.00
same,Rate of Pain Relief,"ropivacaine, Nasal Spray",0.287 IHS points per minute
same,Mean Reduction in Pain Rating,[9],6.22 IHS points
same,Mean Time Until Maximal Effect,[9],33.9
same,Pain Rating After Administration,"ropivacaine, Nasal Spray",1.00
same,Pain Relief,"ropivacaine, Nasal Spray",6.22
same,Patients with complete relief,"ropivacaine, all routes",72%
same,Patients with migraine inhibited / significant (greater than 50%) reduction of migraine severity,"ropivacaine, all routes, thirty-seven migraine patients",92%
same,Average reduction in perceived pain,"ropivacaine, all routes, within one hour, usually within 15 minutes or less",90%
same,"Rebound of migraine, patients","ropivacaine, all routes, within twenty-four hours of treatment",5.4%
same,Mean time between treatment and perception of the peak effect,"ropivacaine, cotton swab",7.41 ± 1.47 min
same,Patients achieving a pain severity rating of zero,"ropivacaine, cotton swab",72%
same,Patients achieving a pain severity rating of zero or one,"ropivacaine, cotton swab",95%
same,Patients with rebound,"ropivacaine, cotton swab",4%
same,Rate of Pain Relief,"ropivacaine, cotton swab",2.32 IHS points per minute
same,Mean peak headache severity rating reduction,"ropivacaine, cotton swab, twenty-four patients",8.73±0.249 points
same,Mean post-administration pain severity rating at the time of peak effect,"ropivacaine, cotton swab, twenty-four patients, mean±standard error, out of 10 points",0.33±0.14 points
same,Potency relative to intranasally spray-administered lidocaine (pain relief per unit weight),"ropivacaine, dorsonasally spray-administered",2.4 times
same,Potency relative to intranasally spray-administered lidocaine (pain relief per unit weight),"ropivacaine, dorsonasally swab-administered",more than 15 times
same,Mean time between treatment and perception of the peak effect,[10],26.00 ± 17.37 min
same,Migraine rebound,[10],None of the three patients experienced migraine rebound
same,Mean peak headache severity rating reduction,"ropivacaine, nasal drops, three patients, out of 10 points",9.00 points
same,Mean time between treatment and perception of the peak effect,"ropivacaine, nasal spray, ten patients",33.9 ± 8.48 min
same,Mean peak headache severity rating reduction,"ropivacaine, nasal spray, ten patients, out of 10 points",6.22±0.66 points
same,Mean headache pain severity rating reduction in patients without complete relief,"ropivacaine, nasal spray, the remainder of ten patients",87.5±6.49%
same,Patients without rebound,"ropivacaine, patients observed for up to seven days",95%

# — patent publication US9381349B2, “Apparatus for treating cerebral neurovascular disorders including headaches by neural stimulation” (priority 1997, dated 2016)
